# Laboratory results as given in US8592394B2, “Synthetic derivatives beta glycolipids and compositions thereof for the treatment of pathologic disorders” (Enzo Therapeutics, Inc., priority 2003, dated 2013).
# How the values were obtained:
# ob/ob mice = test: Fasting glucose and glucose tolerance test in ob/ob mice; assay type: in vivo
# Protocol: Mice underwent a glucose tolerance test (GTT) on day 30 after overnight fasting. Glucose was administered orally (1.25 g per kg). Serum glucose measurements were performed on tail-vein blood every 15 min for 3 h. Glucose levels were measured by a standard glucometer.
# (§1) Therefore, five groups of male C57BL/6 Ob/Ob mice were studied. Mice (6 per group) were fed (per os) daily for 4 weeks with 15 or 45 μg of GC (groups B and C, respectively) and 15 or 45 μg of ALIB-97 (groups D and E, respectively). Control mice (Group A) were administered vehicle only.
# IL-6 = test: Serum IL-6 by ELISA in ConA induced hepatitis; assay type: in vivo, mice; conditions: intraperitoneal
# Protocol: Serum levels of IFN-γ, TGF-β, TNF-α IL-2, IL-4, IL-6, IL-10 and IL-12 were determined by “sandwich” ELISA, using commercial kits (Quantikine, R&D Systems, Minneapolis, Minn., USA). Serum insulin was also determined by “sandwich” ELISA too, using the commercial kit of Mercodia AB (Uppsala, Sweden) according to the manufacturer's instructions.
# fat-associated T cells = test: Flow cytometry of T cell subsets in adipose tissue, stromal vascular cells and spleen of ob/ob mice; assay type: in vivo; conditions: 45 μg per os daily 4 weeks, vs vehicle
# Protocol: Splenocytes and intrahepatic lymphocytes were isolated as follows: livers and spleens were kept in RPMI-1640+FCS. Then spleens were crushed through a 70 μm nylon cell strainer (Falcon) and centrifuged (1250 rpm for 7 min) for the removal of cell debris. Red blood cells were lysed with 1 ml of cold 155 mM ammonium chloride lysis buffer and centrifuged (1250 rpm for 3 min). Splenocytes were resuspended with 1 ml RPMI+FCS. Cell viability by trypan blue staining was above 90%. For intrahepatic lymphocytes, livers were crushed through a stainless mesh (size 60, Sigma) and the cell suspension was placed in a 50-ml tube for 5 min. Lymphoprep (10 ml, Ficoll, Axis-Shield PoC AS, Oslo, Norway) was placed under similar volume of cell suspension in 50-ml tubes. Tubes were centrifuged at 1800 rpm for 18 min. Cells in the interface were collected and centrifuged at 1800 rpm for 10 min, to obtain a pellet of cells depleted of hepatocytes to a final volume of 250 μl. Approximately 1×10^6 cells/mouse liver, were recovered.
# Adipose tissue (visceral fat pads) was minced and incubated in Krebs-Ringer bicarbonate buffer (3 mL/g adipose tissue) containing 10mM glucose and 2.5% bovine serum albumin, incubated with 840 U/g collagenase type I (Sigma, Rehovot, Israel)) at 37° C. for 1 hour. Cells were filtered twice through chiffon mesh (100 μm) and centrifuged 50 g for 5 min. Floating adipocytes were separated from pelleted S/V fraction. The infranatant fraction was removed and centrifuged at 200 g for five minutes to pellet the S/V cells.
# For metabolic syndrome experiments, the following antibodies were used for flow cytometry: anti-CD4-Pacific Blue, anti-CD8-FITC, anti-IL-17-PE, anti CD25-PercP-Cy5.5 and anti FOX3p PE-Cy725 (all from eBioscience, San Diego, Calif.). Surface staining was performed by incubating cells with antibodies and anti-CD16/32 (blocks Fc, eBioscience) at 4° C. in FACS buffer containing PBS and 0.5% BSA, for 30 min. Cells were washed twice with FACS buffer, resuspended in FACS buffer, and analyzed by flow cytometry. Appropriate isotype controls were used in all experiments. Intracellular staining was performed using Foxp3 staining buffer kit (eBioscience, San Diego, Calif.). Cells were incubated with 1 ml Fixation/Permeabilization solution for 50 min, washed twice with Permeabilization buffer and incubated with anti-Foxp3 Ab for 50 min. Cells were then washed twice with Permeabilization buffer and resuspended with FACS buffer. Analysis was performed using a FACSCalibur instrument (Becton Dickinson, San Jose, Calif.) with FCS express V.3 software (DeNovo software, Los Angeles, Calif.).
# as §1
structure (smiles),measurement,setting,value
"CCCCCCCCCCCCCC=CC(O)C(CO[C@@H]1OC(CO)[C@@H](O)C(O)C1O)NC(=S)NC12CC3CC(CC(C3)C1)C2 (stereo in doubt) [ALIB-97, N-adamantyl-N′-glucosylsphingosine thiourea]","time at which the decrease in glucose levels (GTT, relative to time 0) reached statistical significance","ob/ob mice; day 30, 15 μg per os daily",90 min
same,"time at which the decrease in glucose levels (GTT, relative to time 0) reached statistical significance","ob/ob mice; day 30, 45 μg per os daily",60 min
same,serum IL-6 levels,IL-6; B6 mice,reduced
same,serum IL-6 levels,IL-6; Jα18−/− mice,reduced
same,"CD4+CD25+FOXP3+ cells, ADIPOCYTES",fat-associated T cells,↑↑ (↓/↑ and ↓↓/↑↑-p≦0.05 and p≦0.01 respectively)
same,"CD4+CD25+IL17+ cells, SVC",fat-associated T cells,↑ (↓/↑ and ↓↓/↑↑-p≦0.05 and p≦0.01 respectively)
same,"CD4+FOXP3+ cells, SPLEEN",fat-associated T cells,↓ (↓/↑ and ↓↓/↑↑-p≦0.05 and p≦0.01 respectively)
same,"CD4+FOXP3+IL17+ cells, ADIPOCYTES",fat-associated T cells,↓ (↓/↑ and ↓↓/↑↑-p≦0.05 and p≦0.01 respectively)
same,"CD4+IL17+ cells, ADIPOCYTES",fat-associated T cells,↓ (↓/↑ and ↓↓/↑↑-p≦0.05 and p≦0.01 respectively)
same,"CD8+CD25+ cells, ADIPOCYTES",fat-associated T cells,↓ (↓/↑ and ↓↓/↑↑-p≦0.05 and p≦0.01 respectively)
same,"CD8+CD25+FOXP3+ cells, SPLEEN",fat-associated T cells,↑↑ (↓/↑ and ↓↓/↑↑-p≦0.05 and p≦0.01 respectively)
same,"CD8+CD25+FOXP3+ cells, SVC",fat-associated T cells,↓ (↓/↑ and ↓↓/↑↑-p≦0.05 and p≦0.01 respectively)
same,"CD8+CD25+FOXP3+IL17+ cells, ADIPOCYTES",fat-associated T cells,↓ (↓/↑ and ↓↓/↑↑-p≦0.05 and p≦0.01 respectively)
same,"CD8+CD25+FOXP3+IL17+ cells, SPLEEN",fat-associated T cells,↑ (↓/↑ and ↓↓/↑↑-p≦0.05 and p≦0.01 respectively)
same,"CD8+CD25+IL17+ cells, ADIPOCYTES",fat-associated T cells,↑ (↓/↑ and ↓↓/↑↑-p≦0.05 and p≦0.01 respectively)
same,"CD8+CD25+IL17+ cells, SVC",fat-associated T cells,↑ (↓/↑ and ↓↓/↑↑-p≦0.05 and p≦0.01 respectively)
same,"CD8+FOXP3+ cells, SPLEEN",fat-associated T cells,↑↑ (↓/↑ and ↓↓/↑↑-p≦0.05 and p≦0.01 respectively)
same,"CD8+FOXP3+IL17 cells, ADIPOCYTES",fat-associated T cells,↓↓ (↓/↑ and ↓↓/↑↑-p≦0.05 and p≦0.01 respectively)
same,"CD8+IL17+ cells, ADIPOCYTES",fat-associated T cells,↓ (↓/↑ and ↓↓/↑↑-p≦0.05 and p≦0.01 respectively)
same,"CD25+FOXP3+ cells, SPLEEN",fat-associated T cells,↓ (↓/↑ and ↓↓/↑↑-p≦0.05 and p≦0.01 respectively)
